Data set [1] is described as follows: in vitro. Conditions: African green monkey; for CC50 at 4 days: uninfected quiescent Vero-B cells.
Data set [2] relates to DENV-2 NGC. Description: Antiviral activity against DENV-2 NGC in Vero-B cells (viral RNA load by RT-qPCR). It is filed as cell-based, Dengue virus. Conditions: Dengue virus, DENV2, Vero B, DENV-2 in Vero-B cells; inhibition of viral RNA replication by 50% (Table 3).

Consider 44 molecules from US12012411B2, “Viral replication inhibitors” (Katholieke Universiteit Leuven, priority 2011, dated 2024).

In the case of `COc1cc(NC(C(=O)c2c[nH]c3ccccc23)c2ccccc2)ccc1C#N` (stereo not shown) [CPD-218], the CC50 at 4 days in data set [1] is 13 µM. Besides, in data set [2], it took 2.39 µM to reach a half-maximal effect (EC50).
The matching figures for `CC(=O)Nc1cccc(NC(C(=O)c2c[nH]c3ccccc23)c2ccccc2)c1` (stereo not shown) [CPD-174]: 61 µM and 10.1 µM.
`O=C(c1c[nH]c2ccccc12)C(NC1CCOc2ccccc21)c1ccccc1` (stereo not shown) [CPD-182] came in with a CC50 at 4 days in data set [1] of 12 µM. The same molecule yielded an EC50 in data set [2] of 3.01 µM.
In data set [1], `COc1cncc(NC(C(=O)c2nn(C)c3ccccc23)c2ccccc2)c1` (stereo not shown) [CPD-259] showed a CC50 at 4 days of 14 µM. Moreover, the EC50 in data set [2] came out at 0.54 µM.
The molecule `COc1cc(NC(C(=O)c2c[nH]c3ccccc23)c2ccccc2)ccc1F` (stereo not shown) [CPD-356] had a CC50 at 4 days in data set [1] of 13 µM. This molecule also came in with an EC50 in data set [2] of 0.12 µM.
Molecule `COc1cc(NC(C(=O)c2c[nH]c3ccccc23)c2ccc(C)cc2)cc(OCCO)c1` (stereo not shown) [CPD-369] gave a CC50 at 4 days in data set [1] of 11 µM. Besides, the EC50 in data set [2] stood at 0.01 µM.
The matching figures for `COc1ccc2[nH]cc(C(=O)C(Nc3ccnc(OC)c3)c3ccccc3)c2c1` (stereo not shown) [CPD-078]: 109 µM and 11.6 µM.
The matching figures for `COC(=O)c1ccc2c(C(=O)C(Nc3cccc(OC)c3)c3ccccc3)c[nH]c2c1` (stereo not shown) [CPD-085]: 16 µM and 0.07 µM.
The matching figures for `COc1cc(OC)nc(NC(C(=O)c2c[nH]c3ccccc23)c2ccccc2)n1` (stereo not shown) [CPD-347]: 6 µM and 0.98 µM.
`CCn1nccc1C(Nc1cccc(OC)c1)C(=O)c1c[nH]c2ccccc12` (stereo not shown) [CPD-107] registered a CC50 at 4 days in data set [1] of 20 µM. In data set [2], a half-maximal response (EC50) required 7.88 µM.
The matching figures for `COc1cccc(NC(C(=O)c2c[nH]c3ccccc23)c2cncc(OC)c2)c1` (stereo not shown) [CPD-312]: 69 µM and 4.67 µM.
The matching figures for `CNC(=O)c1cccc(NC(C(=O)c2c[nH]c3ccccc23)c2ccccc2)c1` (stereo not shown) [CPD-170]: 26 µM and 0.44 µM.
With `COc1ccnc(NC(C(=O)c2c[nH]c3ccccc23)c2ccccc2)n1` (stereo not shown) [CPD-089], the CC50 at 4 days in data set [1] is > 139 µM. The molecule further yielded an EC50 in data set [2] of 0.67 µM.
The matching figures for `COc1cc(NC(C(=O)c2c[nH]c3ccccc23)c2ccc3[nH]ccc3c2)ccn1` (stereo not shown) [CPD-097]: 12 µM and 2.32 µM.
The matching figures for `COc1cccc(NC(C(=O)c2c[nH]c3ccccc23)c2cn3cc(F)ccc3n2)c1` (stereo not shown) [CPD-110]: 73 µM and 0.58 µM.
The matching figures for `COc1cc(NC(C(=O)c2c[nH]c3ccc(Cl)cc23)c2ccccc2)ccn1` (stereo not shown) [CPD-099]: 12 µM and 1.76 µM.
With `COc1cccc(NC(C(=O)c2c[nH]c3ccccc23)c2cn3cc(C)ccc3n2)c1` (stereo not shown) [CPD-098], in data set [1], the CC50 at 4 days is > 121 µM. This molecule displayed a half-maximal effective concentration (EC50) in data set [2] of 10.7 µM.
Regarding `COc1cccc(NC(C(=O)c2c[nH]c3ccccc23)c2cccc(-c3cncnc3)c2)c1` (stereo not shown) [CPD-054], the CC50 at 4 days in data set [1] is > 115 µM. The EC50 in data set [2] was 2.09 µM.
The matching figures for `O=C(c1c[nH]c2ccccc12)C(NCc1ccco1)c1ccccc1` (stereo not shown) [CPD-034]: > 151 µM and 46.5 µM.
The matching figures for `O=C(c1c[nH]c2ccccc12)C(Nc1cccc(O)c1)c1ccccc1` (stereo not shown) [CPD-366]: 78 µM and 0.26 µM.
The matching figures for `COc1cccc(NC(C(=O)c2c[nH]c3ccccc23)c2cnn(C)c2)c1` (stereo not shown) [CPD-042]: > 138 µM and 12.5 µM.
Molecule `COc1cccc(NC(C(=O)c2n[nH]c3ccccc23)c2ccccc2)c1` (stereo not shown) [CPD-198] had a CC50 at 4 days in data set [1] of 16 µM. Moreover, the EC50 in data set [2] is 0.14 µM.
The matching figures for `O=C(c1c[nH]c2ccccc12)C(NC1CCSc2ccccc21)c1ccccc1` (stereo not shown) [CPD-191]: 13 µM and 2.58 µM.
The matching figures for `CCOC(=O)CCCOc1cc(NC(C(=O)c2c[nH]c3ccccc23)c2ccccc2)cc(OC)c1` (stereo not shown) [CPD-367]: > 103 µM and 0.04 µM.
As for `COCCn1cc(C(=O)C(Nc2cccc(OC)c2)c2ccccc2)c2ccccc21` (stereo not shown) [CPD-136], the CC50 in data set [1] was > 120 µM. This molecule also yielded an EC50 in data set [2] of 0.22 µM.
The molecule `COc1cccc(NC(C(=O)c2c[nH]c3ccccc23)c2ccc(OC(C)C)nc2)c1` (stereo not shown) [CPD-268] came in with a CC50 at 4 days in data set [1] of 15 µM. This molecule displayed an EC50 in data set [2] of 0.46 µM.
The matching figures for `COc1cccc(NC(C(=O)c2cnc3ccccn23)c2ccccc2)c1` (stereo not shown) [CPD-196]: > 139 µM and 62.6 µM.
In the case of `CCS(=O)(=O)n1cc(C(=O)C(Nc2cccc(OC)c2)c2ccccc2)c2ccccc21` (stereo not shown) [CPD-211], in data set [1], the CC50 at 4 days is > 111 µM. The same molecule came in with an EC50 in data set [2] of 2.83 µM.
Regarding `O=C(c1c[nH]c2ccccc12)C(Nc1cccc(N2CCCC2=O)c1)c1ccccc1` (stereo not shown) [CPD-181], the CC50 at 4 days in data set [1] was > 122 µM. In data set [2], this molecule had an EC50 of 4.22 µM.
Turning to `COc1cc(NC(C(=O)c2c[nH]c3cc(Cl)ccc23)c2ccccc2)ccn1` (stereo not shown) [CPD-073], the CC50 at 4 days in data set [1] was 76 µM. The molecule further showed an EC50 in data set [2] of 2.35 µM.
Regarding `CCOC(=O)Cn1cc(C(=O)C(Nc2cccc(OC)c2)c2ccccc2)c2ccccc21` (stereo not shown) [CPD-113], the CC50 in data set [1] was > 112 µM. In addition, in data set [2], the EC50 was found to be 0.49 µM.
Consider `CCc1cncc(NC(C(=O)c2c[nH]c3ccccc23)c2ccccc2)c1` (stereo not shown) [CPD-248], for which the CC50 at 4 days in data set [1] is 15 µM. The molecule also had a half-maximal effective concentration (EC50) in data set [2] of 0.56 µM.
The matching figures for `COc1cccc(NC(C(=O)c2c[nH]c3cccc(C)c23)c2ccccc2)c1` (stereo not shown) [CPD-251]: 14 µM and 0.07 µM.
The matching figures for `CCCN1CCC(NC(C(=O)c2c[nH]c3ccccc23)c2ccccc2)CC1` (stereo not shown) [CPD-184]: 70 µM and 22.4 µM.
The matching figures for `COc1cccc(NC(C(=O)c2c[nH]c3ccccc23)c2cn3ccc(C)cc3n2)c1` (stereo not shown) [CPD-096]: > 121 µM and 2.9 µM.
Turning to `COc1cccc(NC(C(=O)c2noc3ccccc23)c2ccccc2)c1` (stereo not shown) [CPD-330], in data set [1], the CC50 at 4 days is > 139 µM. The molecule also gave an EC50 in data set [2] of 4.63 µM.
In data set [1], `COc1cc(NC(C(=O)c2c[nH]c3ccccc23)c2ccc(F)cc2)ccn1` (stereo not shown) [CPD-090] had a CC50 at 4 days of 13 µM. Also, a half-maximal effect in data set [2] (EC50) was put at 2.9 µM.
The matching figures for `COc1cncc(NC(C(=O)c2c[nH]c3ccccc23)c2cc3ccccn3n2)n1` (stereo not shown) [CPD-290]: > 125 µM and 0.88 µM.
The matching figures for `O=C(c1c[nH]c2ccccc12)C(Nc1cccc(-c2cnco2)c1)c1ccccc1` (stereo not shown) [CPD-059]: 16 µM and 1.25 µM.
The matching figures for `COc1cc(NC(C(=O)c2c[nH]c3ccccc23)c2cn3ccccc3n2)ccn1` (stereo not shown) [CPD-064]: 72 µM and 8.75 µM.
For the molecule `COc1cccc(NC(C(=O)c2c[nH]c3ccccc23)c2ccc(N(C)C)nc2)c1` (stereo not shown) [CPD-239], in data set [1], the CC50 at 4 days was > 125 µM. For the same molecule, the EC50 in data set [2] stood at 22.7 µM.
Take `COc1cccc(NC(C(=O)c2c[nH]c3ccccc23)c2ccc(C#N)c(F)c2)c1` (stereo not shown) [CPD-132]: in data set [1], the CC50 at 4 days worked out at 12 µM. In data set [2], this molecule had an EC50 of 0.05 µM.
Take `COc1cccc(NC(C(=O)c2cn(S(C)(=O)=O)c3ccccc23)c2ccccc2)c1` (stereo not shown) [CPD-111]: the CC50 at 4 days in data set [1] was > 115 µM. In data set [2], the EC50 turned out to be 0.44 µM.
The matching figures for `COc1cc(NC(C(=O)c2c[nH]c3ccccc23)c2cccnc2)ccn1` (stereo not shown) [CPD-074]: 77 µM and 0.81 µM.
